Experimental data published in patent US5883074A, “Potentiators of antibacterial agents” (priority 1995, dated 1999).
Like-named read-outs stand apart in the source and are kept apart here.

Experiments:
[1] = system: MRSA Col cells; assay: Time-kill curve with methicillin; format: cell-based, Staphylococcus aureus; settings: methicillin only; at 24 hours
Method: FIG. 3a is a graph of the number of viable MRSA Col cells/ml versus growth time in hours as determined by the method of Example 4. The graph presents the time kill curve for the first potentiating compound from FIG. 1 at 10 μg/ml with methicillin at 20 μg/ml, and curves for controls (drug-free, methicillin only, and potentiator only). Viable cell counts for all controls were greater than 5×10^8 cells/ml at 24 hours, while the viable cell count for methicillin plus potentiator was approximately 5×10^3 cells/ml after 24 hours.
A standard time-kill method (see Eliopolous & Moellering, Ch. 13 in Antibiotics in Laboratory Medicine, 3rd ed., Lorian ed., at pp. 441-444) is used to characterize whether the potentiator-drug combination is bacteriostatic or bactericidal. As controls, normal growth of the pathogen (without drug or potentiator) and the effects of the drug alone and the potentiator alone are assessed using the same inoculum culture as is used in the combination time-kill test. Either bacteriostatic or bactericidal effect should be confirmed for the potentiators to progress to further testing.

[2] = system: MRSA; assay: Potentiation screening assay: methicillin MIC reduction in MRSA; format: cell-based, Staphylococcus aureus; settings: Staphylococcus aureus; MRSA, methicillin alone
Method: After regrowth at 35° C. to an OD600 of 0.2-0.4 (1-2 hrs.), the cells are diluted 1/1000 in MHB. […] The plate is placed in a humidified 35° C. incubator for 5-24 hours, and cell growth or inhibition is read as turbidity (OD600). Two positive and one negative controls for growth are cells grown MHB, cells grown in MHB plus 20 μg/ml methicillin alone (without test compound), and uninoculated MHB respectively.
Compounds which meet the first two criteria for follow-up are evaluated in a standard microdilution assessment of the MIC with methicillin for MRSA. (see Lorian, Antibiotics in Laboratory Medicine, 3rd ed., pp. 72-75 (1991).) In order to be carried further, the MIC of methicillin preferably is reduced in the presence of the potentiator to at most twice the MIC of a susceptible strain for methicillin.
MICs for the compounds were determined in the presence of 0, 5, and 10 μg/ml of each compound. MRSA cells were grown in the presence of 0, 5, and 10 μg/ml test compound and concentrations of methicillin obtained from serial two-fold dilutions starting at 1024 μg/ml to 0.002 μg/ml (This range can be extended or refined as appropriate.) as follows: A fresh inoculum of MRSA cells was grown at 35° C. in Mueller-Hinton Broth (MHB) overnight and then diluted 1/50 in the same medium. After regrowth at 35° C. to an OD600 of 0.2-0.4 (1-2 hrs.), the cells were diluted 1/1000 in MHB. […] The plate was placed in a humidified 35° C. incubator for 24 hours, and cell growth or inhibition was read as turbidity (OD600).

[3] = system: E. faecalis VanA strain; assay: Vancomycin potentiation screen VPS-20; format: cell-based; settings: Enterococcus faecalis, 10 ug/ml test compound
Method: (§1) In the VPS-20 protocol, vancomycin is used at 20 ug/ml, test compounds are used at 10 ug/ml (this is not critical, a range could be used as well). The growth medium is Brain Heart Infusion broth however, any of a variety of media which will support growth of the specific bacterial strain can be used. The VPS-D-Ala screen uses 8 ug/ml of vancomycin and 50 mM D-alanine. This amino acid is added to feed the bacteria excess alanine, which allows the bacteria to incorporate the alanine in some cases instead of incorporating the (resistance causing) D-lactate in the pentapeptide termini of the cell wall precursor. The presence of this D-alanine supplement thus makes the assay less stringent.
(§2) Inoculate E. faecalis VanA strain in BHI broth (pick a few colonies into 3 ml BHI with 2.56 ug/ml vancomycin and grow O/N at 35° C. in a shaker rotating at 225 rpm.
(§3) Dilute the O/N culture 1:50 in BHI with 2.56 ug/ml vancomycin (0.5 ml±24.5 ml BHI) in a 125-ml flask, put back in the 35° C. shaker until the cells grow to early log phase (OD600 about 0.2, takes approximately 2 hrs). Make a 1:800 dilution of the log phase culture with BHI broth. 50 ul of these diluted cells will be used as the inoculum in the assay as described below. Add the inoculum after the other reagents.
(§4) Meanwhile, test the inoculum concentration and purity: Make 3 serial 10-fold dilutions of the inoculum in 0.2 ml BHI broth. Plate 100 ul on TSA agar plates (trypticase soy agar), incubate at 35° C. O/N, count the colonies to estimate the CFU/ml in the inoculum (it should be 10^4 -10^5 CFU/ml).
(§5) Make vancomycin stock at 50 mg/ml in ddH2 O. Filter sterilize with 0.2 um filter, and keep in the freezer. On the day of the assay, dilute vancomycin to 50 ug/ml (for VPS-20) or 54 ug/ml (for VPS-D-ala) in BHI broth.
(§6) The test compounds are from 0.1 mg/ml plates in 10% DMSO, 90% 50 mM HEPES, pH 7.3. Thaw at room temperature.
1. […]
(§7) 11. […] Remove mylar lids and check the cell density (A600) in 21-24 hours using a microtiter plate reader. The plates will need to be agitated carefully to resuspend the cells before reading.

[4] = system: E. faecalis VanA strain; assay: Vancomycin potentiation screens VPS-20 and VPS-D-ala; format: cell-based, Enterococcus faecalis; settings: 10 ug/ml test compound; for intrinsic activity against the control cells: no vancomycin; for vancomycin potentiation screen result: VPS-20 and/or VPS-D-ala
Method: as §1, §2, §3, §4, §5
Prepare D-alanine (Sigma) at 800 mM in ddH2O. Filter sterilize with 0.2 um filter.
as §6
1. Take 40 ul 50 ug/ml vancomycin in BHI to each well of the assay plate (Final volume will be 100 ul, making vancomycin concentration 20 ug/ml)
2. For each assay plate, prepare a toxicity control plate; instead of pipetting 40 ul of the vancomycin, use 40 ul of BHI broth in each well of the assay plate.
3. Dilute 800 mM D-alanine to 200 mM in BHI broth, take 25 ul of the 200 mM D-alanine to both the assay plate and the toxic control plate.
4. Take 15 ul of 54 ug/ml vancomycin in BHI to each well of the assay plate (Final volume will be 100 ul, making vancomycin concentration 8 ug/ml)
5. For each assay plate, prepare a toxicity control plate; instead of pipetting 15 ul of the vancomycin, use 15 ul of BHI broth in each well of the assay plate.
6. Take 10 ul/well of the test compounds to the assay plates and the toxicity control plates. Do this in perfect register in the microtiter plates (change tips), and work using sterile technique (Final concentration will be 10 ug/ml test compounds, 1% DMSO). This must be done with separate tips, in perfect register.
7. Add 10 ul of 10% DMSO, 90% 50 mM HEPES, pH 7.3 in columns 1 and 12 in each plates.
8. Inoculate all wells in columns 2 to 11 with 50 ul 1/800 diluted log phase culture (prepared as indicated above). Use 50 ul sterile BHI instead of inoculum for the negative growth controls in well A-D in columns 1 and well E-H in columns 12. Add 50 ul of inoculum to Wells E-H in columns 1 and wells A-D in columns 12 for the positive growth controls.
as §7

[5] = system: Enterococcus faecalis VanA; assay: Vancomycin MIC of the test strain; checkerboard with D-alanine; format: cell-based
Method: In addition, in the bacterial strain used in the assays below, vancomycin induces the resistance mechanism. […] However, it is likely that the VPS-8 protocol (or one with a similar glycopeptide concentration)will be useful in conjunction with bacterial strains in which the glycopeptide resistance is not induced by a glycopeptide, such as strains in which the resistance is constitutively expressed.
9. […] 25 ul of the 800 mM D-alanine, 15 ul of 134 ug/ml vancomycin, 10 ul of 10% DMSO, 90% 50 mM HEPES, pH 7.3, 50 ul of BHI broth (negative control) or the inoculum (positive control).

[6] = system: Enterococcus faecalis VanA; assay: Checkerboard assay / dose range study with vancomycin; format: cell-based
Excerpt: (§8) FIG. 9a provides the results of checkerboard assays showing the MIC reduction for vancomycin in the presence of a range of concentrations of brazilin against two Enterococcus faecalis strains, one VanA and the other VanB. […] Similarly, FIG. 9b provides the results of checkerboard assays showing the MIC reduction for vancomycin in the presence of a range of concentrations of 6-ethyl-7-[1-oxo-3-(1-pyrrolidino)]propyl-1,2,3,4-tetrahydro-1,1,4,4-tetramethylnaphthalene (EOPPTTN).
(§9) Two of the three compounds (brazilin and 6-ethyl-7-[oxo-3-(1-pyrrolidino)]propyl-1,2,3,4-tetrahydro-1,1,4,4-tetramethylnaphthalene) have been examined for synergy with vancomycin. […] Two examples of reasons for alterations are for further optimization, and for modification for use with other bacterial strains or species.

[7] = system: Enterococcus faecalis VanB; assay: as above; format: cell-based
Excerpt: as §8, §9

[8] = no vancomycin, read-out: percent intrinsic inhibition in the VPS-20 control (without vancomycin)

SMILES: COc1cccc(OC)c1C(=O)N[C@@H]1C(=O)N2[C@@H]1SC(C)(C)[C@@H]2C(=O)O [methicillin, reference compound]
- viable cell count, methicillin only (control) [1]: greater than 5×10^8 cells/ml
- MIC [2]: > 100 µg/mL

SMILES: O=C(NCc1ccccc1)c1ccccc1S [N-benzyl thiosalicylamide]
- inhibition at 10 µg/mL ([3]; 20 ug/ml vancomycin, read-out: percent growth inhibition in the VPS-20 assay (with vancomycin)): 88%
- inhibition at 10 µg/mL [3, 8]: 4%
- intrinsic activity against the control cells [4]: little intrinsic activity
- vancomycin potentiation screen result [4]: very potent inhibitor in the assay

SMILES: CN[C@H](CC(C)C)C(=O)N[C@H]1C(=O)N[C@@H](CC(N)=O)C(=O)N[C@H]2C(=O)N[C@H]3C(=O)N[C@H](C(=O)N[C@H](C(=O)O)c4cc(O)cc(O)c4-c4cc3ccc4O)[C@H](O)c3ccc(c(Cl)c3)Oc3cc2cc(c3O[C@@H]2O[C@H](CO)[C@@H](O)[C@H](O)[C@H]2O[C@H]2C[C@](C)(N)[C@H](O)[C@H](C)O2)Oc2ccc(cc2Cl)[C@H]1O [vancomycin]
- MIC of vancomycin in the presence of D-alanine ([5]; 200 mM D-alanine): 16 µg/mL
- MIC ([5]; Enterococcus faecalis, read-out: MIC of vancomycin): 512 µg/mL

SMILES: Oc1ccc2c(c1)OC[C@]1(O)Cc3cc(O)c(O)cc3[C@H]21 [brazilin]
- inhibition at 10 µg/mL [3, 8]: 32%
- intrinsic activity against the control cells [4]: some intrinsic activity against the control cells
- vancomycin potentiation screen result [4]: positive, but less than N-benzyl thiosalicylamide
- vancomycin MIC reduction in checkerboard assay ([6]; compound 0-20 μg/ml, VanA): significant reduction in the vancomycin MIC
- synergy with vancomycin ([6]; dose range study, VanA phenotype): synergy
- vancomycin MIC reduction in checkerboard assay ([7]; compound 0-20 μg/ml, VanB): significant reduction in the vancomycin MIC
- synergy with vancomycin ([7]; dose range study, VanB phenotype): synergy
